According to patent publication US20240189318A1, “THERAPEUTIC REGIMENS OF AN INHIBITOR OF THE ENZYMATIC ACTIVITY OF BRG1 AND BRM” (FOGHORN THERAPEUTICS INC., priority 2021, published 2024):

Experiments:
[1] = test system: Uveal melanoma cell lines, 92-1 or MP41; assay: 3-day growth inhibition, Compound A compared with clinical PKC and MEK inhibitors; assay type: cell-based
[2] = test system: Uveal melanoma cell lines (92-1, MP41, MP38, MP46) and non-small cell lung cancer cells (NCIH1299); assay: 3-day growth inhibition, Compound B; assay type: cell-based; settings: 92-1, MP41, MP38, MP46, NCIH1299; 3 days, 0 to 10 μM
[3] = test system: Uveal melanoma cell lines, 92-1 or MP41; assay: 3-day growth inhibition, Compound B compared with clinical PKC and MEK inhibitors; assay type: cell-based
CYP2C19 = CYP2C19 (Homo sapiens, UniProt P33261); assay: Selective chemical inhibition of compound of formula (I) depletion in human liver microsomes, CYP2C19; assay type: in vitro ADME; set-up: from tissue; host or cells: human liver microsomes; settings: human, human liver microsomes, probe compound of formula (I) (depletion); Time-dependent inhibitor; targeted CYP 2C19; inhibitor 10 μM
CYP1A2 = target: T1, CYP1A2 (Homo sapiens, UniProt P05177); assay: in vitro
T1 sequence (P05177 1-516): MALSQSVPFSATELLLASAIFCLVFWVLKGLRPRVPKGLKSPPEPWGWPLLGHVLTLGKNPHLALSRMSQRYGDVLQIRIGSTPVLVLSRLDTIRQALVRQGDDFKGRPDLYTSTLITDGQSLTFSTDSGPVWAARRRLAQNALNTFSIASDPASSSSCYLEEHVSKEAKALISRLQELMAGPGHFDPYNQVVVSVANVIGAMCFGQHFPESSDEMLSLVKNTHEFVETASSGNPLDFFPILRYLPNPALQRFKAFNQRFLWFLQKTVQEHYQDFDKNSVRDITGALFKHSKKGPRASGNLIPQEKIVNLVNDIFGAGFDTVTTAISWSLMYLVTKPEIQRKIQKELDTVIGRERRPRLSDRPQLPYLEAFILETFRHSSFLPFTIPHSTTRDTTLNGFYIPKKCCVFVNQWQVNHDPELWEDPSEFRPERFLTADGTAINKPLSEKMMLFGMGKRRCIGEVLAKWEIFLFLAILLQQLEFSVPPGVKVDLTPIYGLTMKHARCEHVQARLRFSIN

2C8 = target: T2, 2C8 (Homo sapiens, UniProt P10632); assay: Selective chemical inhibition of compound of formula (I) depletion in human liver microsomes, CYP2C8; assay type: in vitro ADME; settings: Time-dependent inhibitor; targeted CYP 2C8; inhibitor 100 μM
T2 construct: from tissue; host or cells: human liver microsomes

CYP3A4/5 = assay: Selective chemical inhibition of compound of formula (I) depletion in human liver microsomes, CYP3A4/5; settings: human
[4] = test system: parental MP41 cells and PKC inhibitor (PKCl)-resistant cells; assay: 7-day growth inhibition assay, parental and PKC inhibitor-resistant cells; assay type: cell-based; settings: 7-day assay
CYP2A6 = target: T3, CYP2A6 (Homo sapiens, UniProt P11509); assay: Selective chemical inhibition of compound of formula (I) depletion in human liver microsomes, CYP2A6; assay type: in vitro ADME; settings: probe compound of formula (I) (depletion), Direct inhibitor, targeted CYP 2A6, inhibitor 10 μM
T3 construct: from tissue; host or cells: human liver microsomes

CYP1A2 enzyme activity = assay: CYP enzyme activity in cultured human hepatocytes, CYP1A2; assay type: in vitro ADME; settings: 50 μM, range from three donors
CYP1A2 mRNA = assay: CYP mRNA level (qRT-PCR) in cultured human hepatocytes, CYP1A2; settings: 50 μM, range of fold change observed from three donors
CYP2B6 = target: T4, CYP2B6 (Homo sapiens, UniProt P20813); assay: Selective chemical inhibition of compound of formula (I) depletion in human liver microsomes, CYP2B6; assay type: in vitro ADME; set-up: from tissue; host or cells: human liver microsomes; settings: probe compound of formula (I) (depletion), Time-dependent inhibitor, targeted CYP 2B6, inhibitor 30 μM
T4 sequence (P20813 1-491): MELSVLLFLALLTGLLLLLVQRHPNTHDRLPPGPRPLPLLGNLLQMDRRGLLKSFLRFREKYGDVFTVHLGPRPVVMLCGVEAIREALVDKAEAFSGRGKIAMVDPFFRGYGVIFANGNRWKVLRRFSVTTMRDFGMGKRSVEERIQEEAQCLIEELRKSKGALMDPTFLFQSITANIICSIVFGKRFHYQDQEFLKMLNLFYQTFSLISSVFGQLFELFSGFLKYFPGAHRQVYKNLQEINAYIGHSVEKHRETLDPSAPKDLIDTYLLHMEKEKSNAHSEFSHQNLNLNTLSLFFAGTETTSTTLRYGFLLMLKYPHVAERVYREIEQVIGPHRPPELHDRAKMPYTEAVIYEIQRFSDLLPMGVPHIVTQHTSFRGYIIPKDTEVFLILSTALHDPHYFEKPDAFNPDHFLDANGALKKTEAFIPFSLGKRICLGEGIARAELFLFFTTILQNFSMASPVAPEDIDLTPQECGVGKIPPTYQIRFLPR

CYP2B6 activity = assay: CYP enzyme activity in cultured human hepatocytes, CYP2B6; assay type: in vitro ADME; settings: 1000 μM, range from three donors
CYP2B6 mRNA = assay: CYP mRNA level (qRT-PCR) in cultured human hepatocytes, CYP2B6; settings: CYP2B6; 1000 μM; range from three donors
2D6 = 2D6 (Homo sapiens, UniProt P10635); assay: Selective chemical inhibition of compound of formula (I) depletion in human liver microsomes, CYP2D6; settings: Direct inhibitor; targeted CYP 2D6; inhibitor 5 μM
CYP2C19 mRNA = assay: CYP mRNA level in cultured human hepatocytes, CYP2C19; assay type: in vitro ADME; settings: CYP2C19; 20 μM; range from three donors
CYP2C9 = CYP2C9 (Homo sapiens, UniProt P11712); assay: in vitro
Sequence of CYP2C9 (P11712 whole entry): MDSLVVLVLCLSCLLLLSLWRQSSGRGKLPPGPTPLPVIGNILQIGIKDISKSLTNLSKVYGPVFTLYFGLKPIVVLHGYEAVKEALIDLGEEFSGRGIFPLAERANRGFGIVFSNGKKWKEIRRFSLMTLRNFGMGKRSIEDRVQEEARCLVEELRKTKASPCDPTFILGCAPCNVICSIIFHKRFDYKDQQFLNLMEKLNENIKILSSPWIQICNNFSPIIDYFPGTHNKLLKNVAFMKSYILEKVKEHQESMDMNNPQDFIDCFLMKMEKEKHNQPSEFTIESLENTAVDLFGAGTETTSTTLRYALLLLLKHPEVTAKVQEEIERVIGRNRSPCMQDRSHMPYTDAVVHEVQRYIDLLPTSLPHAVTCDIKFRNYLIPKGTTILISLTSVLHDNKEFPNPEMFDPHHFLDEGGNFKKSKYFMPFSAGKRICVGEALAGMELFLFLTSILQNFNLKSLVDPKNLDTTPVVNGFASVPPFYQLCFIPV

T3 sequence (P11509 whole entry): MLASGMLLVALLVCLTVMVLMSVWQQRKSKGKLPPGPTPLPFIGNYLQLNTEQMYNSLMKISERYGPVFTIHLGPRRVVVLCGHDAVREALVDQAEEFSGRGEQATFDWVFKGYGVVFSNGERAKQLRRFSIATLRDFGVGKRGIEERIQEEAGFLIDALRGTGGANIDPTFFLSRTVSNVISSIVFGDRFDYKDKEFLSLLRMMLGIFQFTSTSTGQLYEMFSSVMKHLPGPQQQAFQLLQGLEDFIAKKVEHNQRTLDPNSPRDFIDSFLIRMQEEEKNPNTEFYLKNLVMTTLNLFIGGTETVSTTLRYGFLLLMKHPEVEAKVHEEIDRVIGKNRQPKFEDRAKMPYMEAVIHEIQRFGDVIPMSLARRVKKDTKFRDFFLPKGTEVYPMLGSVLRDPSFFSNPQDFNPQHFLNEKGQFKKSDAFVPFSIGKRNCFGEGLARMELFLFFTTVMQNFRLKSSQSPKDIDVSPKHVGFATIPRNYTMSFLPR
T2 sequence (P10632 whole entry): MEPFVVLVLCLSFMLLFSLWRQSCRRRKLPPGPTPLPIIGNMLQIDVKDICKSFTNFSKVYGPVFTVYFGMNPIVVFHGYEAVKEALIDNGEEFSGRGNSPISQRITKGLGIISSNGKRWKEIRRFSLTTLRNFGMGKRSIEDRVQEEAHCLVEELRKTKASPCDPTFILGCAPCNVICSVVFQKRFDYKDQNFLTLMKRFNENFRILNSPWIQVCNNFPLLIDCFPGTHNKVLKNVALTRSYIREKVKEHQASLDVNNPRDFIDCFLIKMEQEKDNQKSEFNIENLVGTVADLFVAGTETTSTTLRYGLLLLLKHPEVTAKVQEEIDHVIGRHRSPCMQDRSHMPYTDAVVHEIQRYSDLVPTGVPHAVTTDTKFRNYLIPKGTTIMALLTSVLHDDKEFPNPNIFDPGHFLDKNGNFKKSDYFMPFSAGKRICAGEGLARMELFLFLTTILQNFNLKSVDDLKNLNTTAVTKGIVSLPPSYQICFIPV
Sequence of 2D6 (P10635 whole entry): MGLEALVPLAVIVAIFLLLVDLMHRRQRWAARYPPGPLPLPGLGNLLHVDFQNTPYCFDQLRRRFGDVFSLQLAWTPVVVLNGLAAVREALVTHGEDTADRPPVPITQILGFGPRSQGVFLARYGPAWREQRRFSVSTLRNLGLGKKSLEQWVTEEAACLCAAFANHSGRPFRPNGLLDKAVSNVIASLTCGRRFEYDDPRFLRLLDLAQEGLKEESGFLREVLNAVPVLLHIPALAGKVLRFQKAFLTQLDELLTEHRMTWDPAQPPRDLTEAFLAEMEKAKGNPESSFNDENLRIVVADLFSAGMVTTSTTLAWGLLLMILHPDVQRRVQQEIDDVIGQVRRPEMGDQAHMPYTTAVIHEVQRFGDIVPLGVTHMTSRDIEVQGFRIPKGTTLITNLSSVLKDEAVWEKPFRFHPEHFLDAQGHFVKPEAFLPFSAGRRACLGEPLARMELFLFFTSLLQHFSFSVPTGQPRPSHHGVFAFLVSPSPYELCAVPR
Sequence of CYP2C19 (P33261 whole entry): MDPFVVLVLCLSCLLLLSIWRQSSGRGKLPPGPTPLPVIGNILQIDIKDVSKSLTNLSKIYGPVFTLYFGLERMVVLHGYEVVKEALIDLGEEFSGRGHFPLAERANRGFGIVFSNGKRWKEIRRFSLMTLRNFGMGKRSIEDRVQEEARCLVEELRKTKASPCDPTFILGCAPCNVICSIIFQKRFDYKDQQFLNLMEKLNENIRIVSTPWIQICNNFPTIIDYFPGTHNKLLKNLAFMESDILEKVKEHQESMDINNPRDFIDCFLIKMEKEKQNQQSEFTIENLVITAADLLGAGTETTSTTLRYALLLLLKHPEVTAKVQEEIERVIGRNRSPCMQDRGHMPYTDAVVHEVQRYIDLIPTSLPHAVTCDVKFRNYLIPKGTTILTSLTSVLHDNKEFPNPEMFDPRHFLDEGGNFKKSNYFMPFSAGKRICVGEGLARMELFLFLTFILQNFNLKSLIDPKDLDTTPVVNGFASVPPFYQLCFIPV

With `CSCC[C@H](NC(=O)c1ccc(N)cc1)C(=O)Nc1nc(-c2cccc(-c3ccncc3)c2)cs1` [Compound A] the “onset of inhibition versus clinical PKC and MEK inhibitors” value ([1]; 92-1 or MP41) was “faster onset of inhibition” and the “growth inhibition of uveal melanoma cells versus clinical PKC and MEK inhibitors” value ([1]; 92-1 or MP41, 3 days, 0 to 10 μM, vs LXS196 and selumetinib) was “comparable growth inhibition”.
With `CSCC[C@H](NC(=O)c1ccn(S(C)(=O)=O)c1)C(=O)Nc1nc(-c2cccc(-c3ccncc3)c2)cs1` [Compound B] the “growth inhibition in the cell lines” value [2] was “potent growth inhibition”, the “onset of growth inhibition versus clinical PKC and MEK inhibitors” value ([3]; 92-1 or MP41) was “faster onset of growth inhibition” and the “growth inhibition of uveal melanoma cells versus clinical PKC and MEK inhibitors” value ([3]; 92-1 or MP41, 3 days, vs LXS196 and selumetinib) was “more potent effects on growth inhibition”.
In the case of `COc1ccc2nc([S@@+]([O-])Cc3ncc(C)c(OC)c3C)[nH]c2c1` [Esomeprazole, reference compound], the inhibition at 10 µM (CYP2C19) is reported as 27.1%.
`Cc1nc2c([nH]1)c(=O)n(C)c(=O)n2Cc1ccco1` [Furafylline] gave an inhibition at 10 µM (CYP1A2) of 1.9%.
With `Cc1ccc(C)c(OCCCC(C)(C)C(=O)O[C@@H]2O[C@H](C(=O)O)[C@@H](O)[C@H](O)[C@H]2O)c1` [Gemfibrozil glucuronide] the “% Inhibition of compound of formula (I) depletion in human liver microsomes” value (2C8) was “No”.
`CC(=O)N1CCN(c2ccc(OCC3COC(Cn4ccnc4)(c4ccc(Cl)cc4Cl)O3)cc2)CC1` (stereo not shown) [Ketoconazole, reference compound] gave an inhibition at 1 µM (CYP3A4/5) of 83.3%.
For `CC1(N)CCN(c2cccnc2NC(=O)c2nc(-c3ncccc3C(F)(F)F)cnc2N)CC1` [LXS196], the “sensitivity of PKCl-resistant cells relative to parental MP41 cells” value [4] was “could tolerate growth at higher concentrations”.
With `N#Cc1ccc(C(c2ccc(C#N)cc2)n2cncn2)cc1` [Letrozole] the inhibition at 10 µM (CYP2A6) was 9.1%.
With `COc1ccc2[nH]c([S+]([O-])Cc3ncc(C)c(OC)c3C)nc2c1` (stereo not shown) [Omeprazole, reference compound] the “Positive Control Enzyme Activity Fold Change” value (CYP1A2 enzyme activity) was 20.0-93.9 and the “Positive Control mRNA Fold Change” value (CYP1A2 mRNA) was 50.2-118.
`c1ccc(C2(N3CCCCC3)CCCCC2)cc1` [Phencyclidine] gave an inhibition at 30 µM (CYP2B6) of 5.7%.
`CCC1(c2ccccc2)C(=O)NC(=O)NC1=O` [Phenobarbital, reference compound] was tested, and the “Positive Control Enzyme Activity Fold Change” value (CYP2B6 activity) was 11.9-16.7 and the “Positive Control mRNA Fold Change” value (CYP2B6 mRNA) was 15.3-39.6.
`C=C[C@H]1C[N@@]2CC[C@H]1C[C@@H]2[C@@H](O)c1ccnc2ccc(OC)cc12` [Quinidine] was tested, and the “% Inhibition of compound of formula (I) depletion in human liver microsomes” value (2D6) was “No”.
With `CO[C@H]1/C=C/O[C@@]2(C)Oc3c(C)c(O)c4c(O)c(c(/C=N/N5CCN(C)CC5)c(O)c4c3C2=O)NC(=O)/C(C)=C\C=C\[C@H](C)[C@H](O)[C@@H](C)[C@@H](O)[C@@H](C)[C@H](OC(C)=O)[C@@H]1C` [Rifampin, reference compound] the “Positive Control mRNA Fold Change” value (CYP2C19 mRNA) was 0.61-1.01.
`O=C(O)COc1ccc(C(=O)c2cccs2)c(Cl)c1Cl` [Tienilic acid] was tested, and the inhibition at 20 µM (CYP2C9) was 2.4%.
